Read-outs that look alike come from different tables or passages of the source.
Assays:
[1] = for response to glucose in vitro: addition of glucose
PHK cells = assay: In-vitro detection in PHK cells loaded with reporter, two-photon fluorescent imaging; type: cell-based; details: 50 micromolar reporter; glucose increased to 300 mg/dl; EM 440 nm, 2P excitation 705 nm
Description: PHK cells were loaded with AF-327d reporter, at 50 micromolar concentration, in buffer. Fluorescence was measured using a two-photon fluorescent imaging system at approximately EM 440 nm, and excitation at (2P) 705 nm. Pictures taken 10 minutes apart show a slight change in fluorescence intensity upon increasing the glucose concentration to 300 mg/dl in the cell buffer medium. This is seen clearly, as a 20% decrease in time course of fluorescence.

[2] = Glucose response rate in stirred cuvette, pH 8 phosphate buffer; details: 100 μL of 300 mg/dL glucose in pH 8 buffer; ex 340 nm, em 440 nm; read every 15 seconds
Description: Arg-327 unprotected batches were prepared. One batch was supplied as a yellow powder and the other as a concentrated solution in deuterated methanol. A small sample of these materials was taken and dissolved in 3 ml of pH 8 phosphate buffer. The fluorescence of these materials was excited at 340 nm and the emission monitored at 440 nm. The fluorescence was monitored every 15 seconds in a stirred cuvette. After about 3 minutes 100 μL of 300 mg/dL glucose in pH 8 buffer was added. […] Similar results were obtained for both samples.

living cells = assay: Membrane potential (Rh123 fluorescence quenching) to track D-glucose in living cells; type: cell-based; details: glucose 0 to 5 mg/dL (0.28 mM)
Description: The fluorescence quenching is an indication of membrane potential changes within living cells with respect to an increase in glucose concentration, as shown in FIG. 17 (glucose from 0 to 400 mg/dL) and FIG. 18 (glucose from 0 to 66 mg/dL).
The saturation point value was expected to be between 0.0 and 2 mg/dL.

[3] = glucose zero to 300 mg/dL, in vitro

SMILES | increase of fluorescence intensity with glucose [1, 3] | response to glucose in vitro [1] | other results
O=C(Nc1ccc2oc(=O)c3ccccc3c2c1)c1ccc(B(O)O)cc1 [AF-345] | 30% |  | 
O=C(/C=C/c1ccc(B(O)O)cc1)c1cc2ccccc2oc1=O [AF-343] |  | No fluorescence or glucose effect | 
O=C(Nc1ccc2c(C(F)(F)F)cc(=O)oc2c1)c1ccc(B(O)O)cc1 [AF-327d] | 60% | stronger response to glucose than other published compounds | change of absorption spectrum at the excitation wavelength as a function of glucose concentration ([1]; excitation 375 nm): less than 10%; increase of fluorescence intensity with glucose ([1]; glucose range of 200 mg/dL, excitation 375 nm, emission 400-550 nm): at least 40%; decrease in time course of fluorescence (PHK cells): 20%; glucose response rate (fluorescence after glucose addition) [2]: increased immediately
COC(=O)c1ccccc1-c1c2ccc(=N)cc-2oc2cc(N)ccc12.Cl [Rh123] |  |  | Rh123 fluorescence with increasing glucose levels (living cells): approximate linear decrease
O=C(Nc1ccc([N+](=O)[O-])cc1)c1ccc(B(O)O)cc1 [AF-339] |  | weaker than AF-327 | 

From patent US8466286B2, “SMMR (small molecule metabolite reporters) for use as in vivo glucose biosensors” (Cercacor Laboratories, Inc., priority 2003, dated 2013)
